Laboratory results as given in US6992070B2 (priority 2000, dated 2006).

Tested on: ex vivo perfused rabbit heart (ventricular myocytes), Adgal adenovirus gene transfer
Assay type: cell-based

Nc1nc2c(nc(Br)n2[C@@H]2O[C@@H]3COP(=O)(O)O[C@H]3[C@H]2O)c(=O)[nH]1 [8-Br-cGMP]
infection efficiency: replicates the increase in infection efficiency
pretreatment (exposure) time required for the enhancement of infection: 2 min

NCCc1c[nH]c2ccc(O)cc12 [serotonin]
pretreatment (exposure) time required for the enhancement of infection: 15 min

CCCOc1ccccc1-c1nc2nn[nH]c2c(=O)[nH]1 [zaprinast]
percentage of infected cells: increased the percentage of infected cells
percentage of infected cells in the absence of VEGF: No change

O=[N+]([O-])OCC(CO[N+](=O)[O-])O[N+](=O)[O-] [nitroglycerin]
infection efficiency: replicates the increase in infection efficiency
pretreatment (exposure) time required for the enhancement of infection: 2 min

CCCc1nn(C)c2c(=O)[nH]c(-c3cc(S(=O)(=O)N4CCN(C)CC4)ccc3OCC)nc12 [Sildenafil, 5-[2-ethoxy-5-(4-methylpiperazin-1-ylsulphonyl)phenyl]-1-methyl-3-n-propyl-1,6-dihydro-7H-pyrazolo[4,3d]pyrimidin-7-one]
percentage of infected cells: increased the percentage of infected cells
percentage of infected cells in the absence of VEGF: No change
